One data set deals with LSD1 (Homo sapiens (Human), UniProt O60341). Kind of data set: TR-FRET Assay for LSD1. Particulars: read-out: LSD1 IC50. For orientation: In TR-FRET formats the signal depends on donor and acceptor labels being close together.
In data set [1] the target is HDAC6 human recombinant enzyme (Homo sapiens (Human), UniProt Q9UBN7). Kind of data set: Histone Deacetylase Assay (BPS Biosciences), HDAC6. It counts as biochemical. An excerpt: Histone Deacetylase Assay (BPS Biosciences)
Chain of HDAC6 human recombinant enzyme (Q9UBN7 whole entry): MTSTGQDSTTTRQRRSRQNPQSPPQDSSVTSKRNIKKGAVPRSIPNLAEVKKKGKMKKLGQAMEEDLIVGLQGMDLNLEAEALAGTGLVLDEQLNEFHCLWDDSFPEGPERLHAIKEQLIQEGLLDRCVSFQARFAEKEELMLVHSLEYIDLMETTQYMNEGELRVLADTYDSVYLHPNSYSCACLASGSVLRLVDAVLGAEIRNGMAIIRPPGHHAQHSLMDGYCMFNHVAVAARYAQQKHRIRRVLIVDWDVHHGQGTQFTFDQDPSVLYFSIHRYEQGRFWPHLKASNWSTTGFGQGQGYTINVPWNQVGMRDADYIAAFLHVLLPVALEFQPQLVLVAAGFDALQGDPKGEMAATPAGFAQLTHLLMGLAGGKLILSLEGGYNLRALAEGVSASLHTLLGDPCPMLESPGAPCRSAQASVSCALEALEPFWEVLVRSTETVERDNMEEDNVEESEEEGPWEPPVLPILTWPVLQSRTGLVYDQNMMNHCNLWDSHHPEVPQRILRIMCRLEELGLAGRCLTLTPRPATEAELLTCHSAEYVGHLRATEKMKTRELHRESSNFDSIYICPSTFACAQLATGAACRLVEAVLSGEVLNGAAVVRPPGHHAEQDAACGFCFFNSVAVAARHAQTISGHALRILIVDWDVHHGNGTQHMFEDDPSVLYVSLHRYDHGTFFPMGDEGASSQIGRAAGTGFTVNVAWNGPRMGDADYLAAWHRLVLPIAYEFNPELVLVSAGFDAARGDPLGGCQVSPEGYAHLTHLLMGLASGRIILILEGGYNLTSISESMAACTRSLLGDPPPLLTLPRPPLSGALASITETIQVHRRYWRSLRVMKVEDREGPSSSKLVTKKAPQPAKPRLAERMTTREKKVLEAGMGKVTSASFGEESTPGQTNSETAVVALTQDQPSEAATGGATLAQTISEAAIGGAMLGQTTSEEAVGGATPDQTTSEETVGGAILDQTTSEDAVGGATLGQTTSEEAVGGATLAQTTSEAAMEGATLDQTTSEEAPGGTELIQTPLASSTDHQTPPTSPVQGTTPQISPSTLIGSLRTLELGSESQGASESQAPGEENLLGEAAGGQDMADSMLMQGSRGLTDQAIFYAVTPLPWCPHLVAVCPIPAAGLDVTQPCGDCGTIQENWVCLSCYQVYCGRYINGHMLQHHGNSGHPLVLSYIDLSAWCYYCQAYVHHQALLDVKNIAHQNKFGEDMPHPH
Histone deacetylase assay was done as per manufacturer's instructions.

Another data set concerns MM1S. Description: Anticancer activity: Alamar Blue assay, MM1S. The data set is classed as cell-based. Particulars: Homo sapiens, MM1.S, read-out: MM1S EC50.
Data set [2] can be described thus: Metabolic stability in liver microsomes, MLM. The conditions noted are these: 1 μM, NADPH.
Method: (§1) The microsomal suspension was prepared by adding liver microsomes to 100 mM potassium phosphate buffer (pH7.4) to give a final protein concentration of 0.5 mg/mL. The stock solution of NCE (10 mM in DMSO) was added to the microsomes to provide a final concentration of 1 μM. […] Samples were vortexed and centrifuged at 5,000 rpm for 10 min to remove proteins. Supernatant were analyzed on LC-MS/MS.
The nature of data set [3]: Metabolic stability in liver microsomes, HLM. The conditions noted are these: 1 μM, NADPH.
Method: as §1

Structures can show the parent of a compound that is named as a salt. Where two headings read alike, the source gives them in different places.

Method for LSD1: TR-FRET Assay for LSD1 (Perkin Elmer)
Tranylcypromine (TCP), LSD1 inhibitor was procured from Selleckchem. […] Stop Solution containing 300 μM tranylcypromine in 1× LANCE Detection Buffer was added to the wells and incubated for 5 min at RT. Then, Detection mix containing 2 nM Eu-Ab and 50 nM ULight-Streptavidin in 1× LANCE Detection Buffer was prepared and added to the reaction mix. This mixture was incubated for 1 hour at room temperature.

As a reminder, the IC50 is the concentration that inhibits the measured activity by half. A word on the EC50: it is the concentration needed to bring the measured effect to its halfway point. As to `Nc1ccccc1NC(=O)c1ccc(CCCn2cc(CNC3CC3c3ccccc3)cn2)cc1` (centres unmarked) [Example 138, N-(2-aminophenyl)-4-(3-(4-(((2-phenylcyclopropyl)amino)methyl)-1H-pyrazol-1-yl)propyl)benzamide TFA Salt], the IC50 on LSD1 is 99 nM; in data set [1] it was above 10000 nM. Moreover, in the data set with MM1S (MM1S cells), the EC50 came to 65 nM.

With `O=C(NO)c1ccc(Cn2cc(CNC3CC3c3ccccc3)nn2)cc1` (centres unmarked) [Example 41, N-hydroxy-4-((4-(((2-phenylcyclopropyl)amino)methyl)-1H-1,2,3-triazol-1-yl)methyl)benzamide TFA Salt], the half-maximal inhibitory concentration (IC50) on LSD1 came out at 319 nM; in data set [1] it was 74 nM.

Consider `O=C(NO)c1ccc(C(=O)NCCN2CCC(CNC3CC3c3ccccc3)CC2)cc1` (centres unmarked) [Example 89, N-hydroxy-N4-(2-(4-(((2-phenylcyclopropyl)amino)methyl)piperidin-1-yl)ethyl)terephthalamide TFA Salt], for which the IC50 at LSD1 was determined as 20 nM; in data set [1] it was 720 nM. In addition, in the data set with MM1S (MM1S cells), the EC50 worked out at 311 nM.

`O=C(NO)c1ccc(S(=O)(=O)NCCN2CCC(CNC3CC3c3ccc(F)cc3)CC2)cc1` (centres unmarked) [Example 87, 4-(N-(2-(4-(((2-(4-fluorophenyl)cyclopropyl)amino)methyl)piperidin-1-yl)ethyl)sulfamoyl)-N-hydroxybenzamide TFA Salt]: the IC50 amounted to 25 nM at LSD1 and 1060 nM in data set [1]. Also, the EC50 in the data set on MM1S (MM1S cells) is 9110 nM.

Turning to `O=C(NO)c1ccc(CS(=O)(=O)NCCN2CCC(CNC3CC3c3ccccc3)CC2)cc1` (centres unmarked) [Example 86, N-hydroxy-4-((N-(2-(4-(((2-phenylcyclopropyl)amino)methyl)piperidin-1-yl)ethyl)sulfamoyl)methyl)benzamide TFA Salt], in data set [2], the “Metabolic stability MLM % remaining in 30 min” value is 58%. The IC50 at LSD1 was 18 nM. Also, the “Metabolic stability HLM % remaining in 30 min” value in data set [3] is on record as 71%. In the data set with MM1S, the EC50 is 676 nM.

As to `O=C(NO)c1csc(CCCN2CCC(CNC3CC3c3ccc(-c4ccc(F)cc4)cc3)CC2)n1` (centres unmarked) [Example 111, 2-(3-(4-(((2-(4′-fluoro-[1,1′-biphenyl]-4-yl)cyclopropyl)amino)methyl)piperidin-1-yl)propyl)-N-hydroxythiazole-4-carboxamide TFA Salt], the “Metabolic stability MLM % remaining in 30 min” value in data set [2] was 91%. For the same compound, the IC50 at LSD1 came to 22 nM. Moreover, the “Metabolic stability HLM % remaining in 30 min” value in data set [3] was 95%. For the same compound, in the data set with MM1S, the concentration giving a half-maximal response (EC50) was determined as 3060 nM.

Consider `O=C(NO)c1ccc(CCCn2cc(CNC3CC3c3ccccc3)cn2)cc1` (centres unmarked) [Example 76, N-hydroxy-4-(3-(4-(((2-phenylcyclopropyl)amino)methyl)-1H-pyrazol-1-yl)propyl)benzamide TFA Salt], for which the results for the half-inhibitory concentration (IC50) (at LSD1; in data set [1]) were 84 nM and 22 nM, respectively. Besides, in the data set with MM1S (MM1S cells), the 50% effective concentration (EC50) is 42 nM.

Turning to `Nc1ccccc1NC(=O)c1ccc(OCCN2CCC(CNC3CC3c3ccc(F)cc3)CC2)nc1` (centres unmarked) [Example 149, N-(2-aminophenyl)-6-(2-(4-(((2-(4-fluorophenyl)cyclopropyl)amino)methyl)piperidin-1-yl)ethoxy)nicotinamide TFA Salt], the IC50 on LSD1 was 21 nM; in data set [1] it was above 10000 nM. Moreover, the EC50 with MM1S (MM1S cells) was above 10000 nM.

With `O=C(/C=C/c1ccc(CNC2CC2c2ccc(-c3cncnc3)cc2)cc1)NO` (centres unmarked) [Example 7, (E)-N-hydroxy-3-(4-(((2-(4-(pyrimidin-5-yl)phenyl)cyclopropyl)amino)methyl)phenyl)acrylamide TFA Salt], the “Metabolic stability MLM % remaining in 30 min” value in data set [2] is below 5%. Besides, the IC50 at LSD1 was 27 nM. Besides, the “Metabolic stability HLM % remaining in 30 min” value in data set [3] is 70%. In addition, the EC50 in the data set on MM1S amounted to 48 nM.

As to `O=C(NO)c1ccc(CN2CCC(CNC3CC3c3ccc(-c4cncnc4)cc3)CC2)cc1` (centres unmarked) [Example 38, N-hydroxy-4-((4-(((2-(4-(pyrimidin-5-yl)phenyl)cyclopropyl)amino)methyl)piperidin-1-yl)methyl)benzamide TFA Salt], the “Metabolic stability MLM % remaining in 30 min” value in data set [2] was above 95%. Moreover, at LSD1, the IC50 stood at 53 nM. Further, the “Metabolic stability HLM % remaining in 30 min” value in data set [3] is listed as 87%. The EC50 in the data set with MM1S stood at 3640 nM.

Take `O=C(NO)c1ccc(N2CCC(CNC3CC3c3ccc(F)cc3)CC2)cc1` (centres unmarked) [Example 22, 4-(4-(((2-(4-fluorophenyl)cyclopropyl)amino)methyl)piperidin-1-yl)-N-hydroxybenzamide TFA Salt]: in data set [2], the “Metabolic stability MLM % remaining in 30 min” value was 38%. Moreover, at LSD1, the IC50 stood at 6400 nM. Besides, the “Metabolic stability HLM % remaining in 30 min” value in data set [3] came out at 60%. Moreover, the EC50 with MM1S stood at 44 nM.

Consider `Cc1noc(C)c1-c1ccc(C2CC2NCC2CCN(C(=O)/C=C/c3ccc(C(=O)NO)cc3)CC2)cc1` (centres unmarked) [Example 116, (E)-4-(3-(4-(((2-(4-(3,5-dimethylisoxazol-4-yl)phenyl)cyclopropyl)amino)methyl)piperidin-1-yl)-3-oxoprop-1-en-1-yl)-N-hydroxybenzamide TFA Salt], for which, in data set [2], the “Metabolic stability MLM % remaining in 30 min” value amounted to 50%. Besides, the IC50 on LSD1 worked out at 69 nM. The “Metabolic stability HLM % remaining in 30 min” value in data set [3] was found to be 63%. In addition, the EC50 with MM1S stood at 157 nM.

As for `O=C(NO)C1CCC(NC2CC2c2ccccc2)CC1` (centres unmarked) [Example 33, 4-(2-Phenyl-cyclopropylamino)-cyclohexanecarboxylic Acid Hydroxyamide TFA Salt], the IC50 on LSD1 is 2250 nM; in data set [1], above 1000 nM.

`Cn1cc(-c2ccc(C3CC3NCC3CN(CCCc4ccc(C(=O)NO)cc4)C3)cc2)cn1` (centres unmarked) [Example 63, N-hydroxy-4-(3-(3-(((2-(4-(1-methyl-1H-pyrazol-4-yl)phenyl)cyclopropyl)amino)methyl)azetidin-1-yl)propyl)benzamide TFA Salt]: the “Metabolic stability MLM % remaining in 30 min” value in data set [2] came out at 69%. In addition, the IC50 on LSD1 worked out at 31 nM. Besides, the “Metabolic stability HLM % remaining in 30 min” value in data set [3] is given as 86%. Further, the EC50 with MM1S was 191 nM.

As for `Cc1noc(C)c1-c1ccc(C2CC2NCC2CCN(Cc3ccc(C(=O)NO)cn3)CC2)cc1` (centres unmarked) [Example 39, 6-((4-(((2-(4-(3,5-dimethylisoxazol-4-yl)phenyl)cyclopropyl)amino)methyl)piperidin-1-yl)methyl)-N-hydroxynicotinamide TFA Salt], in data set [2], the “Metabolic stability MLM % remaining in 30 min” value was above 95%. For the same compound, the 50% inhibitory concentration (IC50) at LSD1 came to 34 nM. Further, the “Metabolic stability HLM % remaining in 30 min” value in data set [3] was 87%. The concentration for a half-maximal effect (EC50) in the data set on MM1S amounted to 2970 nM.

In the case of `O=C(NO)c1ccc(CCC(=O)N2CCC(NC3CC3c3ccccc3)CC2)cc1` (centres unmarked) [Example 83, N-hydroxy-4-(3-oxo-3-(4-((2-phenylcyclopropyl)amino)piperidin-1-yl)propyl)benzamide TFA Salt], in data set [2], the “Metabolic stability MLM % remaining in 30 min” value was 82%. The IC50 at LSD1 is 90 nM. In addition, in data set [3], the “Metabolic stability HLM % remaining in 30 min” value came to 69%. Besides, the EC50 with MM1S was determined as 153 nM.

Regarding `Cc1noc(C)c1-c1ccc(C2CC2NCC2CCN(Cc3ccc(C(=O)NO)cc3)CC2)cc1` (centres unmarked) [Example 37, 4-((4-(((2-(4-(3,5-dimethylisoxazol-4-yl)phenyl)cyclopropyl)amino)methyl)piperidin-1-yl)methyl)-N-hydroxybenzamide TFA salt], the “Metabolic stability MLM % remaining in 30 min” value in data set [2] is 55%. The IC50 at LSD1 turned out to be 43 nM. For the same compound, in data set [3], the “Metabolic stability HLM % remaining in 30 min” value was found to be 86%. Moreover, the concentration giving a half-maximal response (EC50) in the data set with MM1S turned out to be 1730 nM.
